{"source": "patent US11326183B2", "about": "“VCN enhancer compositions and methods of using the same” (priority 2016, dated 2022)", "key": {"hCD34+ cells [1]": {"tested_on": "hCD34+ cells", "test": "VCN of pooled colonies after 14 day MethoCult culture, staurosporine and/or PGE2", "type": "cell-based, human", "conditions": "for VCN compared to controls or other treatments, in words: mean VCN", "procedure": "(§1) Washed cells were resuspended in 200 μL SCGM and then transferred to 3 mL aliquots of cytokine-supplemented methylcellulose (for example, Methocult M4434 Classic). 1.1 mL was then transferred to parallel 35-mm tissue culture dishes using a blunt 16-gauge needle. Dishes were maintained in a standard humidified tissue culture incubator for 12-16 days and colonies were scored for size, morphology, and cellular composition. Individual colonies were then picked for subsequent VCN analysis or the contents of an entire 35-mm dish were pooled and then subject to VCN analysis.\nCells were then transduced with LVV and cultured in the presence of protamine sulfate (standard), PGE2 or vehicle. After transduction, cells were washed and cultured in MethoCult for 14 days.\nAfter a 14 day MethoCult culture, pooled colonies were collected and analyzed for VCN. Mean VCN data is shown. […] FIG. 8."}, "[2]": {"tested_on": "long-term NSG repopulating cells", "test": "VCN of bone marrow from NSG mice 4 months post-transplant of transduced hCD34+ cells", "type": "in vivo", "text": "(§2) HSCs transduced with lentivirus were transplanted into NOD/SCID Gamma (NSG) mice to assess the effect of candidate compounds on viral transduction of human long-term hematopoietic stem cells. Transduced cells were washed and resuspended in phosphate-buffered saline (PBS) and transplanted into the tail vein of sub-myeloablated adult NSG mice, with minimal residual toxicity. Mice were housed in a pathogen-free environment per standard IACUC animal care guidelines. At 4 months post-transplant bone marrow (BM) was harvested from both femurs and analyzed for both VCN and engraftment of human cells by staining with an anti-hCD45 antibody (BD #561864) followed by flow cytometry analysis.\n(§3) Following transduction, cells were washed and injected into busulfan-treated NSG mice. Aliquots of the drug product were retained for in vitro analysis. […] FIG. 4A. […] FIG. 4A. After 4 months in vivo, NSG mice were sacrificed and BM was collected and analyzed for VCN of the engrafted hCD34+ cells. There was an overall decrease in mean VCNs across all groups in vivo as compared to the drug product VCNs, indicating higher transduction of short-term progenitors rather than long-term stem cells. FIG. 4B."}, "[3]": {"tested_on": "bulk hCD34+ cells and CD34+CD38LoCD90+CD45RA- phenotypic stem cells", "test": "Single-cell PCR assay of transduction efficiency in bulk and CD34+CD38LoCD90+CD45RA- cells", "type": "cell-based, human", "conditions": "400 nM or 800 nM staurosporine 2 hours", "procedure": "(§4) Washed cells were resuspended in 2 mL Stem Cell Growth Medium (SCGM)+cytokines and transferred to a standard 12-well non-adherent tissue culture plate. Cells were maintained for an additional 6 days in a standard humidified tissue culture incubator (5% CO2) and then subjected to Vector Copy Number (VCN) analysis or single-cell nested PCR to determine transduction efficiency. Both VCN and the single-cell nested PCR assay were performed with qPCR using primers and probes specific to both the vector and an endogenous control gene. VCN was determined by dividing the amount of vector signal by the amount of the endogenous control gene. For the single-cell nested PCR assay, wells that contained a cell positive for the endogenous control gene and wells that contained a marked cell positive for both the vector and the endogenous control gene were enumerated, and the proportion of marked cells, or transduction efficiency, was calculated.\nThawed hCD34+ cells were stained with antibodies against cell surface markers for phenotypic HSCs (CD34^+CD38^LoCD90^+CD45^RA− cells) and then sorted using a Sony Cell Sorter. […] After culture, the cells were then single-cell sorted into 96 well plates and analyzed via the single-cell PCR assay to assess transduction efficiency, the percent lentiviral vector positive cells. […]"}, "hCD34+ grafts": {"tested_on": "hCD34+ grafts", "test": "Non-restrictive insertion site analysis (polyclonality)", "description": "Identified insertion sites were mapped within gene regions to examine the lentiviral integration profile. […] Insertion sites were also quantified as the percent of total reads. The top 10 clones are shown for each treatment.\nInsertion sites were pooled for each group and quantified as the percent of total reads. The top 10 clones are shown for each treatment."}, "[4]": {"tested_on": "transplanted hCD34+ cells", "test": "Engraftment and differentiation of transplanted hCD34+ cells in NSG mice (flow cytometry of BM)", "type": "in vivo", "conditions": "BM four months post-transplant", "text": "as §2\nCells were stained with an antibody cocktail recognizing various cell surface markers (CD45, CD33, CD3, CD19) and analyzed via flow cytometry. […] FIG. 5B."}, "hCD34+ cells [5]": {"tested_on": "hCD34+ cells", "test": "Methylcellulose assay for CFC formation (stem cell potential)", "type": "cell-based, human", "procedure": "as §1\nFor the 2 hour incubation, cells were subsequently washed and cultured in transduction media for the remaining 24 hours. Following the cultures, cells were plated in methylcellulose for CFC formation. […] FIG. 2B. […] FIG. 2A."}, "hCD34+ cells [6]": {"tested_on": "hCD34+ cells", "test": "Transgene (LNGFR) expression by flow cytometry", "type": "cell-based, human", "conditions": "200 nM staurosporine 2 hours, 24 hour transduction"}, "hCD34+ cells [7]": {"tested_on": "hCD34+ cells", "test": "Vector copy number (VCN) analysis of hCD34+ cells transduced with LVV after staurosporine treatment", "type": "cell-based, human", "procedure": "as §4, §1\nCells transduced for 2 hours were then subjected to staining and flow analysis for the BLAM assay to quantify viral entry. […] FIG. 1A. […] FIGS. 1B and 1C.\nThese seven cell lots had been prospectively classified as low, medium, or high transducing cell lots. A low transducing cell lot is defined here as having a mean VCN <0.5 in vehicle-treated transductions, a medium transducing cell lot is defined here as having a mean 0.5<VCN<1, and a high transducing cell lot is defined here as having a mean VCN>1. […] This property of leveling average VCN among cell lots with different transducibility could aid in controlling variability between cell lots and normalizing drug product VCNs.\nas §3"}, "hCD34+ cells [8]": {"tested_on": "hCD34+ cells", "test": "BlaM (BLAM) assay for assessment of viral entry", "type": "cell-based, human", "procedure": "Cells were transduced for 2 hours in the presence of F108, PGE2, and a virus encoding a β-lactamase-Vpr fusion protein. Following transduction, cells were washed and incubated with a fluorescent β-lactamase substrate for 30-60 minutes. β-lactamase cleavage was analyzed by flow cytometry: uncleaved substrate is GFP^+, and cleavage of the fluorescent β-lactamase results in a Pacific Blue^+ signal. β-lactamase cleavage indicates lentivirus entry into the cell. See also, Cavrois et al. Nature Biotechnology. 2002.\nCells transduced for 2 hours were then subjected to staining and flow analysis for the BLAM assay to quantify viral entry. […]. FIGS. 1B and 1C."}}, "note": "“Also recorded” adds a separate entry of the source.", "data": [{"smiles": "CCCCC[C@H](O)/C=C/[C@H]1[C@H](O)CC(=O)[C@@H]1C/C=C\\CCCC(=O)O", "note": "[PGE2, prostaglandin E2]", "values": [{"measurement": "VCN compared to controls or other treatments, in words", "setting": "hCD34+ cells [1]", "result": "increased VCN compared to controls"}]}, {"smiles": "CN[C@@H]1C[C@H]2O[C@@](C)([C@@H]1OC)n1c3ccccc3c3c4c(c5c6ccccc6n2c5c31)C(=O)NC4", "note": "[staurosporine, Staurosporine]", "values": [{"measurement": "fold improvement in mean in vivo VCN of BM relative to vehicle", "setting": "[2]; 400 nM staurosporine prior to transduction", "result": 3, "unit": "fold"}, {"measurement": "fold improvement in mean in vivo VCN of BM relative to vehicle", "setting": "[2]; 800 nM staurosporine prior to transduction", "result": 4, "unit": "fold"}, {"measurement": "transduction efficiency (percent lentiviral vector positive cells) versus standard transduction", "setting": "[3]", "result": "increased transduction efficiency compared to standard transduction conditions; also recorded: higher than the transduction efficiency of the cells transduced using the standard transduction protocol"}, {"measurement": "VCN compared to controls or other treatments, in words", "setting": "hCD34+ cells [1]", "result": "increased VCN compared to controls; also recorded: outperforms PGE2 addition"}, {"measurement": "fold increase in VCN", "setting": "hCD34+ cells [1]; staurosporine two hours before transduction", "result": 3, "unit": "fold"}, {"measurement": "clonality of engrafted cells (insertion site profile)", "setting": "hCD34+ grafts; BM four months post-transplant, top 10 clones", "result": "polyclonal insertion site profile similar to vehicle treated cells"}, {"measurement": "lentiviral integration profile of transduced cells", "setting": "hCD34+ grafts; pre-transplant drug product, insertion sites mapped within gene regions", "result": "did not appear to skew"}, {"measurement": "clonality of pre-transplantation samples", "setting": "hCD34+ grafts; pre-transplant drug product, top 10 clones as percent of total reads", "result": "polyclonality"}, {"measurement": "effect of staurosporine treatment on engraftment", "setting": "[4]; 400 nM or 800 nM", "result": "does not affect engraftment; also recorded: no statistically significant effect"}, {"measurement": "proportion of myeloid (CD33+) or lymphoid (CD3+ or CD19+) cells / differentiation capabilities", "setting": "[4]; 400 nM or 800 nM", "result": "is maintained; also recorded: no difference"}, {"measurement": "level of engraftment of hCD34+ cells", "setting": "[4]; all groups (vehicle, 400 nM, 800 nM staurosporine)", "result": "30-40%"}, {"measurement": "colony formation ability", "setting": "hCD34+ cells [5]; 2 hour exposure, 200 nM, 400 nM or 800 nM", "result": "retain colony formation ability and do not significantly differ from control-treated cells; also recorded: did not affect the ability of the hCD34^+ cells to form colonies"}, {"measurement": "colony-forming potential", "setting": "hCD34+ cells [5]; 24 hour exposure, 800 nM", "result": "few hCD34^+ cells that retain colony-forming potential"}, {"measurement": "decrease in CFC formation", "setting": "hCD34+ cells [5]; 24 hour exposure, lower doses (200 nM, 400 nM)", "result": "> 50", "unit": "%"}, {"measurement": "reduction in CFC formation", "setting": "hCD34+ cells [5]; 24 hours exposure, 3 different concentrations of staurosporine", "result": "> 50", "unit": "%"}, {"measurement": "fold increase in transgene expression (LNGFR)", "setting": "hCD34+ cells [6]", "result": 1.5, "unit": "fold"}, {"measurement": "fold increase in (mean) VCN versus control", "setting": "hCD34+ cells [7]; 200 nM staurosporine 2 hours, washed, 24 hour transduction", "result": 2, "unit": "fold"}, {"measurement": "mean VCN of the drug product, in words", "setting": "hCD34+ cells [7]; 400 nM staurosporine 2 hours", "result": "did not significantly improve the mean VCN"}, {"measurement": "mean VCN of the drug product, in words", "setting": "hCD34+ cells [7]; 800 nM staurosporine", "result": "VCN enhancement"}, {"measurement": "fold improvement in mean VCN of the drug product (pooled colonies) versus vehicle", "setting": "hCD34+ cells [7]; 800 nM staurosporine 2 hours", "result": "approximately 2 fold"}, {"measurement": "fold increase in average VCN", "setting": "hCD34+ cells [7]; 800 nM staurosporine 2 hours, high transducing cell lots (mean VCN>1)", "result": 1.2, "unit": "fold"}, {"measurement": "fold increase in average VCN", "setting": "hCD34+ cells [7]; 800 nM staurosporine 2 hours, low transducing cell lots (mean VCN <0.5)", "result": 2.3, "unit": "fold"}, {"measurement": "fold increase in average VCN", "setting": "hCD34+ cells [7]; 800 nM staurosporine 2 hours, medium transducing cell lots (0.5<VCN<1)", "result": 1.5, "unit": "fold"}, {"measurement": "effect of increasing staurosporine concentration on VCN enhancement", "setting": "hCD34+ cells [7]; 200, 400, 800 nM, high transducing cell lots", "result": "plateaus"}, {"measurement": "effect of increasing staurosporine concentration on mean VCN", "setting": "hCD34+ cells [7]; 200, 400, 800 nM, low and medium transducing cell lots", "result": "trend for increasing mean VCN"}, {"measurement": "increase in the amount of cells containing LVV compared to vehicle-treated controls", "setting": "hCD34+ cells [8]; 200 nM staurosporine 2 hours, washed, 2 hour transduction", "result": "~50", "unit": "%"}, {"measurement": "percentage of cells containing vector by BLAM assay, fold higher than controls", "setting": "hCD34+ cells [8]; staurosporine-treated hCD34+ cells, two MOIs", "result": 1.5, "unit": "fold"}]}]}
